Results on 15 molecules are retold here after US20160237045A1, “SUBSTITUTED PHENYLALANINE DERIVATIVES” (BAYER PHARMA AKTIENGESELLSCHAFT, priority 2013, published 2016).

Where a name gives a salt, the structure may show the parent alone.

One assay has as its system plasma. The assay is described as follows: Determination of anticoagulatory activity: activated partial thromboplastin time (aPTT) in plasma. The conditions noted are these: in vitro in human and animal plasma (species of Table B not stated); C.K. Prest kit; 37° C., 3 minutes incubation. The procedure: a.4) Determination of Anticoagulatory Activity
The anticoagulatory activity of the test substances is determined in vitro in human and animal plasma (for example mouse, rat, rabbit, pig and dog plasma). To this end, blood is drawn off in a mixing ratio of sodium citrate/blood of 1:9 using a 0.11 molar sodium citrate solution as receiver. Immediately after the blood has been drawn off, it is mixed thoroughly and centrifuged at about 4000 g for 15 minutes. The supernatant is pipetted off.
The activated partial thromboplastin time (aPTT) is determined in the presence of varying concentrations of test substance or the corresponding solvent using a commercial test kit (C.K. Prest from Diagnostica Stago). The test compounds are incubated with the plasma and the PTT reagent (cephalin, kaolin) at 37° C. for 3 minutes. Coagulation is then started by addition of a 25 mM aqueous calcium chloride solution, and the time when coagulation occurs is determined. The concentration of test substance which brings about a 1.5-fold extension of the aPTT is determined.

A further assay addresses T1, human factor XIa (Homo sapiens, UniProt P03951).
T1 construct: purchased Kordia
The assay is described as follows: Measurement of FXIa inhibition (fluorogenic peptide substrate Boc-Glu(OBzl)-Ala-Arg-AMC). It counts as biochemical. To be noted: factor XIa from Kordia 0.45 nM; 15 min preincubation; 30 min at 22° C.; fluorescence of AMC. The procedure:
a.1) Measurement of FXIa Inhibition
The factor XIa inhibition of the substances according to the invention is determined using a biochemical test system which utilizes the reaction of a peptidic factor XIa substrate to determine the enzymatic activity of human factor XIa. Here, factor XIa cleaves from the peptic factor XIa substrate the C-terminal aminomethylcoumarin (AMC), the fluorescence of which is measured. The determinations are carried out in microtitre plates.
Test substances are dissolved in dimethyl sulphoxide and serially diluted in dimethyl sulphoxide (3000 μM to 0.0078 μM; resulting final concentrations in the test: 50 μM to 0.00013 μM). In each case 1 μl of the diluted substance solutions is placed into the wells of white microtitre plates from Greiner (384 wells). Subsequently, the following are added successively: 20 μl of assay buffer (50 mmol/l Tris buffer pH 7.4; 100 mmol/l sodium chloride; 5 mmol/l calcium chloride; 0.1% bovine serum albumin) and 20 μl of factor XIa from Kordia (0.45 nM in assay buffer). After 15 min of incubation, the enzyme reaction is started by addition of 20 μl of the factor XIa substrate Boc-Glu(OBzl)-Ala-Arg-AMC dissolved in assay buffer (10 μM in assay buffer) from Bachem, the mixture is incubated at room temperature (22° C.) for 30 min and fluorescence is then measured (excitation: 360 nm, emission: 460 nm). The measured emissions of the test batches with test substance are compared to those of control batches without test substance (only dimethyl sulphoxide instead of test substance in dimethyl sulphoxide), and IC50 values are calculated from the concentration/activity relationships.

T1 sequence (P03951 388-625 limits assumed): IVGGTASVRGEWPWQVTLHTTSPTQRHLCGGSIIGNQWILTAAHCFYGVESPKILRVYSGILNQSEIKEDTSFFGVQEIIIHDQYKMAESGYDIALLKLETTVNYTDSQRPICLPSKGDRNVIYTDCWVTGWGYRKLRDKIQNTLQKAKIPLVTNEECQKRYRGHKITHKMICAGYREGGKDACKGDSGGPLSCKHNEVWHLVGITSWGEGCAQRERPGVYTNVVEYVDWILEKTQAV
T1 sequence (P03951 19-387 partner limits assumed): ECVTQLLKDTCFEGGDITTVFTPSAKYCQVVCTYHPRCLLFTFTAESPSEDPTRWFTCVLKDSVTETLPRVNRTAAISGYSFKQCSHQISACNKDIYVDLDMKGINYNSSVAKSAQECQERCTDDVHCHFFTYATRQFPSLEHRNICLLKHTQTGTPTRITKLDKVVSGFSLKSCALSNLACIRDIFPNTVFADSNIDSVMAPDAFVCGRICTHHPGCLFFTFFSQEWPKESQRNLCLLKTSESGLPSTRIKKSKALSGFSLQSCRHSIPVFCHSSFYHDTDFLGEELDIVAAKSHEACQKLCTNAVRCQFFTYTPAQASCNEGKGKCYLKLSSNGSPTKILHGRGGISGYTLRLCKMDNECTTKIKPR

For the molecule `NC[C@H]1CC[C@H](C(=O)N[C@@H](Cc2ccc(-c3ccccc3CO)cc2)C(=O)Nc2ccc(-c3nn[nH]n3)cc2)CC1` [Example 14, trans-4-(Aminomethyl)-N-[(2S)-3-[2′-(hydroxymethyl)biphenyl-4-yl]-1-oxo-1-{[4-(2H-tetrazol-5-yl)phenyl]amino}propan-2-yl]cyclohexanecarboxamide hydrochloride], the “aPTT (concentration of test substance which brings about a 1.5-fold extension of the aPTT)” value with plasma is 0.31 µmol/L. On human factor XIa, the IC50 – broadly, the concentration at which inhibition is half-maximal – stood at 4.2 nM.
With `NCC(=O)NCC(=O)NCC(=O)Nc1ccccc1-c1ccc(C[C@H](NC(=O)[C@H]2CC[C@H](CN)CC2)C(=O)Nc2ccc(-c3nn[nH]n3)cc2)cc1` [Example 9, Glycylglycyl-N-{4′-[(2S)-2-({[trans-4-(aminomethyl)cyclohexyl]carbonyl}amino)-3-oxo-3-{[4-(2H-tetrazol-5-yl)phenyl]amino}propyl]biphenyl-2-yl}glycinamide hydrochloride], the “aPTT (concentration of test substance which brings about a 1.5-fold extension of the aPTT)” value with plasma came out at 0.12 µmol/L. Moreover, inhibition against human factor XIa was half-maximal at 5.3 nM (IC50).
On the same counts, the results for `NC[C@H]1CC[C@H](C(=O)N[C@@H](Cc2ccc(-c3ccccc3CN3CCNCC3)cc2)C(=O)Nc2ccc(-c3nnn[nH]3)cc2)CC1` [Example 16, trans-4-(Aminomethyl)-N-[(2S)-1-oxo-3-[2′-(piperazin-1-ylmethyl)biphenyl-4-yl]-1-{[4-(1H-tetrazol-5-yl)phenyl]amino}propan-2-yl]cyclohexanecarboxamide hydrochloride] are 0.08 µmol/L and 6.2 nM.
On the same counts, the results for `NC[C@H]1CC[C@H](C(=O)N[C@@H](Cc2ccc(-c3ccccc3C(=O)N3CCNCC3)cc2)C(=O)Nc2ccc(-c3nn[nH]n3)cc2)CC1` [Example 5, trans-4-(Aminomethyl)-N-[(2S)-1-oxo-3-[2′-(piperazin-1-ylcarbonyl)biphenyl-4-yl]-1-{[4-(2H-tetrazol-5-yl)phenyl]amino}propan-2-yl]cyclohexanecarboxamide hydrochloride] are 0.32 µmol/L and 11 nM.
For `NC[C@H]1CC[C@H](C(=O)N[C@@H](Cc2ccc(-c3ccccc3NC(=O)C3CCOCC3)cc2)C(=O)Nc2ccc(-c3nn[nH]n3)cc2)CC1` [Example 11, N-{4′-[(2S)-2-({[trans-4-(Aminomethyl)cyclohexyl]carbonyl}amino)-3-oxo-3-{[4-(2H-tetrazol-5-yl)phenyl]amino}propyl]biphenyl-2-yl}tetrahydro-2H-pyran-4-carboxamide hydrochloride], in that order: 0.16 µmol/L and 3 nM.
Turning to `CN(C)CC(=O)Nc1ccccc1-c1ccc(C[C@H](NC(=O)[C@H]2CC[C@H](CN)CC2)C(=O)Nc2ccc(-c3nn[nH]n3)cc2)cc1` [Example 10, trans-4-(Aminomethyl)-N-[(2S)-3-(2′-{[(dimethylamino)acetyl]amino}biphenyl-4-yl)-1-oxo-1-{[4-(2H-tetrazol-5-yl)phenyl]amino}propan-2-yl]cyclohexanecarboxamide hydrochloride], in the assay with plasma, the “aPTT (concentration of test substance which brings about a 1.5-fold extension of the aPTT)” value was 0.23 µmol/L. Also, the IC50 against human factor XIa is 7.2 nM.
On to `NC[C@H]1CC[C@H](C(=O)N[C@@H](Cc2ccc(-c3ccccc3C(N)=O)cc2)C(=O)Nc2ccc(-c3nc(C(F)(F)C(F)(F)C(=O)O)n[nH]3)cc2)CC1` [Example 15, 3-[5-(4-{[(2S)-2-({[trans-4-(Aminomethyl)cyclohexyl]carbonyl}amino)-3-(2′-carbamoylbiphenyl-4-yl)propanoyl]amino}phenyl)-1H-1,2,4-triazol-3-yl]-2,2,3,3-tetrafluoropropanoic acid hydrochloride], for which the “aPTT (concentration of test substance which brings about a 1.5-fold extension of the aPTT)” value in the assay on plasma came out at 0.23 µmol/L. The same molecule returned an IC50 at human factor XIa of 12 nM.
On the same counts, the results for `NC[C@H]1CC[C@H](C(=O)N[C@@H](Cc2ccc(-c3ccccc3S(=O)(=O)N3CCOCC3)cc2)C(=O)Nc2ccc(-c3nn[nH]n3)cc2)CC1` [Example 1, trans-4-(Aminomethyl)-N-[(2S)-3-[2′-(morpholin-4-ylsulphonyl)biphenyl-4-yl]-1-oxo-1-{[4-(2H-tetrazol-5-yl)phenyl]amino}propan-2-yl]cyclohexanecarboxamide hydrochloride] are 0.17 µmol/L and 1.9 nM.
For the molecule `NC[C@H]1CC[C@H](C(=O)N[C@@H](Cc2ccc(-c3ccccc3NC(=O)C3CCNCC3)cc2)C(=O)Nc2ccc(-c3nnn[nH]3)cc2)CC1` [Example 12, N-{4′-[(2S)-2-({[trans-4-(Aminomethyl)cyclohexyl]carbonyl}amino)-3-oxo-3-{[4-(1H-tetrazol-5-yl)phenyl]amino}propyl]biphenyl-2-yl}piperidine-4-carboxamide hydrochloride], the “aPTT (concentration of test substance which brings about a 1.5-fold extension of the aPTT)” value in the assay on plasma is 0.29 µmol/L. For the same molecule, the IC50 against human factor XIa worked out at 8.9 nM.
On the same counts, the results for `CC(C)Oc1ccccc1-c1ccc(C[C@H](NC(=O)[C@H]2CC[C@H](CN)CC2)C(=O)Nc2ccc(-c3nc(C(F)(F)C(F)(F)C(=O)O)n[nH]3)cc2)cc1` [Example 17, 3-[5-(4-{[(2S)-2-({[trans-4-(Aminomethyl)cyclohexyl]carbonyl}amino)-3-(2′-isopropoxybiphenyl-4-yl)propanoyl]amino}phenyl)-1H-1,2,4-triazol-3-yl]-2,2,3,3-tetrafluoropropanoic acid hydrochloride] are 0.22 µmol/L and 1.2 nM.
For `NC[C@H]1CC[C@H](C(=O)N[C@@H](Cc2ccc(-c3ccccc3C(=O)N3CCCCC3)cc2)C(=O)Nc2ccc(-c3nn[nH]n3)cc2)CC1` [Example 4, trans-4-(Aminomethyl)-N-[(2S)-1-oxo-3-[2′-(piperidin-1-ylcarbonyl)biphenyl-4-yl]-1-{[4-(2H-tetrazol-5-yl)phenyl]amino}propan-2-yl]cyclohexanecarboxamide hydrochloride], in that order: 0.07 µmol/L and 1.3 nM.
On to `NC[C@H]1CC[C@H](C(=O)N[C@@H](Cc2ccc(-c3ccccc3C(=O)N3CCOCC3)cc2)C(=O)Nc2ccc(-c3nn[nH]n3)cc2)CC1` [Example 2, trans-4-(Aminomethyl)-N-[(2S)-3-[2′-(morpholin-4-ylcarbonyl)biphenyl-4-yl]-1-oxo-1-{[4-(2H-tetrazol-5-yl)phenyl]amino}propan-2-yl]cyclohexanecarboxamide hydrochloride], for which the “aPTT (concentration of test substance which brings about a 1.5-fold extension of the aPTT)” value with plasma was found to be 0.03 µmol/L. On human factor XIa, half-maximal inhibition (IC50) required 2.8 nM.
As for `NC[C@H]1CC[C@H](C(=O)N[C@@H](Cc2ccc(-c3ccccc3C(=O)NC3CCNCC3)cc2)C(=O)Nc2ccc(-c3nn[nH]n3)cc2)CC1` [Example 6, 4′-[(2S)-2-({[trans-4-(Aminomethyl)cyclohexyl]carbonyl}amino)-3-oxo-3-{[4-(2H-tetrazol-5-yl)phenyl]amino}propyl]-N-(piperidin-4-yl)biphenyl-2-carboxamide hydrochloride], the “aPTT (concentration of test substance which brings about a 1.5-fold extension of the aPTT)” value in the assay with plasma amounted to 0.57 µmol/L. This molecule yielded an IC50 at human factor XIa of 39 nM.
Take `CC(=O)Nc1ccccc1-c1ccc(C[C@H](NC(=O)[C@H]2CC[C@H](CN)CC2)C(=O)Nc2ccc(-c3nn[nH]n3)cc2)cc1` [Example 13, trans-N-[(2S)-3-(2′-Acetamidobiphenyl-4-yl)-1-oxo-1-{[4-(2H-tetrazol-5-yl)phenyl]amino}propan-2-yl]-4-(aminomethyl)cyclohexanecarboxamide hydrochloride]: the “aPTT (concentration of test substance which brings about a 1.5-fold extension of the aPTT)” value in the assay on plasma is 0.18 µmol/L. Also, the IC50 against human factor XIa came out at 4 nM.
For `CCN(CC)C(=O)c1ccccc1-c1ccc(C[C@H](NC(=O)[C@H]2CC[C@H](CN)CC2)C(=O)Nc2ccc(-c3nn[nH]n3)cc2)cc1` [Example 3, 4′-[(2S)-2-({[trans-4-(Aminomethyl)cyclohexyl]carbonyl}amino)-3-oxo-3-{[4-(2H-tetrazol-5-yl)phenyl]amino}propyl]-N,N-diethylbiphenyl-2-carboxamide hydrochloride], in that order: 0.12 µmol/L and 0.7 nM.
